For data set [1] the following is noted: hydrochloride salt compared to the base; cited from earlier work.
The nature of data set [2]: Drug release from drug-loaded biodegradable vehicles at 37° C. in isotonic phosphate buffer. It counts as physicochemical. The note with it: for drug release: drug 20% w/w. The protocol: A polymer (25% w/w of 50/50 lactide-co-glycolide copolymer, inherent viscosity of 0.59) was dissolved in a minimum quantity of acetone. […] The resulting solutions were stirred to yield uniform mixtures. Acetone was evaporated from the mixtures by heating at 60-75° C. with constant stirring. The biodegradable vehicles were kept in a vacuum oven at 60-75° C. overnight to ensure complete removal of acetone. […] Oxytetracycline base (20% w/w) was added to each biodegradable vehicle and mixed thoroughly to ensure uniform distribution of the drug in the formulations. Drug release from the drug-loaded biodegradable vehicles was performed at 37° C. in isotonic phosphate buffer containing sodium sulfite as an antioxidant. […]
A polymer (25% w/w of 50/50 lactide-co-glycolide copolymer, inherent viscosity of 0.59) was dissolved in a minimum quantity of acetone. Either pure polyethylene glycol 400, triethyl citrate (TEC) or acetyl triethyl citrate (ATEC) was added to the polymer solution. The resulting solutions were stirred to yield uniform mixtures. Acetone was evaporated from the mixtures by heating at 60-75° C. with constant stirring. The biodegradable vehicles were kept in a vacuum oven at 60-75° C. overnight to ensure complete removal of acetone. […] Oxytetracycline base (20% w/w) was added to each biodegradable vehicle and mixed thoroughly to ensure uniform distribution of the drug in the formulations. Drug release from the drug-loaded biodegradable vehicles was performed at 37° C. in isotonic phosphate buffer containing sodium sulfite as an antioxidant. Drug release was fastest from formulations prepared with PEG 400, and slowest from those prepared with ATEC.
The resulting solutions were stirred to yield uniform mixtures. Acetone was evaporated from the mixtures by heating at 60-75° C. with constant stirring. The biodegradable vehicles were kept in a vacuum oven at 60-75° C. overnight to ensure complete removal of acetone. […] Oxytetracycline base (20% w/w) was added to each biodegradable vehicle and mixed thoroughly to ensure uniform distribution of the drug in the vehicles. Drug release from the drug-loaded biodegradable vehicles was performed at 37° C. in isotonic phosphate buffer containing sodium sulfite as an antioxidant. Faster drug release was observed from formulations prepared with a 16.67% polymer and 83.3% of plasticizer blends of varying compositions (polymer to plasticizer ratio of 1:5) compared to those prepared from formulations with polymer to plasticizer ratios of […] (i.e. […]). This is because increasing the polymer concentration in the formulations from 16.67% to 33.3% increased the viscosity of the formulations and decreased the drug diffusion from the formulations. […]
The solutions were stirred to yield a uniform mixture. Acetone was evaporated from the mixtures by heating at 60-75° C. with constant stirring. The biodegradable vehicles were kept in a vacuum oven at 60-75° C. overnight to ensure complete removal of acetone. […] Either hydrated naltrexone base (20% w/w) or naltrexone hydrochloride (20% w/w) was added to the biodegradable vehicles and mixed thoroughly to ensure uniform distribution of the drugs in the formulations. Drug release from the drug-loaded biodegradable vehicles was performed at 37° C. in isotonic phosphate buffer. […] This is because the solubility of the naltrexone hydrochloride in the dissolution buffer is much greater than that of the hydrated naltrexone base.
A similar drug release study was performed with formulations containing either 20% oxytetracycline hydrochloride or 20% oxytetracycline base. […] The solutions were stirred to yield a uniform mixture. Acetone was evaporated from the mixtures by heating at 60-75° C. with constant stirring. The biodegradable vehicles were kept in a vacuum oven at 60-75° C. overnight to ensure complete removal of acetone. […]

A short description of data set [3]: Solubility in water / dissolution buffer. It counts as physicochemical. The note with it: compared to hydrated naltrexone base; isotonic phosphate buffer.
The nature of data set [4]: Drug release from drug-loaded biodegradable vehicles at 37° C. in isotonic phosphate buffer. The data set is classed as physicochemical. To be noted: compared to hydrated naltrexone base, 25% polymer (i.v. 0.64) with pure PEG 400 or 50/50% PEG 400/TEC, drug 20% w/w.

SMILES strings stand for the structures. Where a name gives a salt, the structure may show the parent alone.

For the compound `CN(C)[C@@H]1C(O)=C(C(N)=O)C(=O)[C@@]2(O)C(O)=C3C(=O)c4c(O)cccc4[C@@](C)(O)[C@H]3[C@H](O)[C@@H]12` [oxytetracycline hydrochloride], the aqueous solubility result in data set [1] is recorded as “greater”.

Consider `CN(C)[C@@H]1C(=O)C(C(N)=O)=C(O)[C@@]2(O)C(=O)C3=C(O)c4c(O)cccc4[C@@](C)(O)[C@H]3[C@H](O)[C@@H]12` [oxytetracycline base], for which the drug release result is “considerably faster” in data set [2] (blend of 75% PEG 400 and 25% TEC compared to 50/50% PEG 400/TEC at similar polymer to plasticizer ratios); “Intermediate” in data set [2] (formulations prepared from TEC, 25% w/w polymer, compared among PEG 400, TEC, ATEC); “slowest” in data set [2] (formulations prepared with ATEC, 25% w/w polymer, compared among PEG 400, TEC, ATEC); “fastest” in data set [2] (formulations prepared with PEG 400, 25% w/w polymer, compared among PEG 400, TEC, ATEC); “dramatically increased” in data set [2] (on decreasing inherent viscosity of polymer from 0.76 to 0.15, PEG 400); “dramatically increased” in data set [2] (on decreasing polymer in the formulations from 25% to 10% (PEG 400 75% to 90%), 37° C.). The drug release entry in data set [2] (on increasing PEG 400 from 0% PEG 400/100% TEC to 100% PEG 400/0% TEC, 25% w/w polymer, 37° C.) is “faster”; in data set [2] (polymer to plasticizer ratio 1:5 (16.67% polymer) compared to 1:3, PEG 400/TEC blends), “Faster”. Besides, the “cumulative amount of drug released” value in data set [2] (on increasing drug in the formulations from 10 to 30% w/w, 25% w/w 50/50 PLGA (i.v. 0.59) + PEG 400, 37° C., isotonic phosphate buffer with sodium sulfite) was “increased”.

For `O=C1CC[C@@]2(O)[C@H]3Cc4ccc(O)c5c4[C@@]2(CCN3CC2CC2)[C@H]1O5` [naltrexone hydrochloride], the “solubility in the dissolution buffer” value in data set [3] is recorded as “much greater”. The drug release result in data set [4] is reported as “considerably faster”.

The values are drawn from US6432438B1, “Biodegradable vehicle and filler” (priority 1997, dated 2002).
